Consider five molecules from patent publication US20110237538A1, “TREATMENT OF LYSOSOMAL STORAGE DISORDERS AND OTHER PROTEOSTATIC DISEASES” (SUMMIT CORPORATION PLC, priority 2008, published 2011).

One assay deals with T1, beta-glucuronidase (Homo sapiens, UniProt P08236).
T1 sequence (P08236 23-651): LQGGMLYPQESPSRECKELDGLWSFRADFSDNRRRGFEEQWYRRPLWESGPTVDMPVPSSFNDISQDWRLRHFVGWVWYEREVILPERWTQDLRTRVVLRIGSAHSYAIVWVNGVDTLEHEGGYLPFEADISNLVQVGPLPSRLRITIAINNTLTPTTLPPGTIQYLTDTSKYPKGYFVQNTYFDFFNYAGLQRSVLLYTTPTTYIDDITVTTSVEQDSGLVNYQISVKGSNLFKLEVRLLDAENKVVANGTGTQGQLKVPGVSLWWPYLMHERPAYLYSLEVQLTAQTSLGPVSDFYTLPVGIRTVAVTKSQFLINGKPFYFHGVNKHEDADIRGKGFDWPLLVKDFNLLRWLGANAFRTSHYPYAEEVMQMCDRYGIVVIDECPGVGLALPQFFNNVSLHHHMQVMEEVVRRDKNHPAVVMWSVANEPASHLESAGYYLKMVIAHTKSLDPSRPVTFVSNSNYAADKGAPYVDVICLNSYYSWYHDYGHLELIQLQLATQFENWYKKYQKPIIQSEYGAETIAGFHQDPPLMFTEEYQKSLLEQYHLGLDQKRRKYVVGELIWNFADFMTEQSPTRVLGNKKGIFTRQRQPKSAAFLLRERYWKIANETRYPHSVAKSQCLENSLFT
In words: inhibition of beta-glucuronidase (Example 3). Type of assay: biochemical. The source says:
(§1) This compound, for example, might therefore show therapeutic activity for mucopolysaccharidosis type 1.

Assay [1] concerns the other 14 glycosidases described in Example 2. Nature of the assay: glycosidase panel of Example 2 (selectivity). The assay is classed as biochemical. The procedure: The assays were conducted as described by Watson et al. 1997, Phytochemistry 46: 255-259 using p-nitrophenyl-substrates. Assays were carried out in microtitre plates. Enzymes were assayed in 0.1M citric acid/0.2M di-sodium hydrogen phosphate (Mcllvaine) buffers at the optimum pH for the enzyme. All assays were carried out at 20° C. All enzymes and substrates were purchased from Sigma Aldrich Chemicals Limited. The incubation mixture consisted of 10 μl of enzyme solution, 10 μl of the iminosugars solution (made up in deionised water at 5 mM) and 50 μl of the appropriate 5 mM p-nitrophenyl substrate made up in McIlvaine buffer at the optimum pH for the enzyme. The reactions were stopped with 0.4M glycine (pH 10.4) during the exponential phase of the reaction, which was determined at the beginning of the assay using blanks with water, which were incubated for a range of time periods to measure the reaction rate using 5 mM substrate solution. Absorbances were read at 405 nm. Water was substituted for the inhibitors in the blanks. […]

Another assay concerns the target T2, alpha-L-iduronidase (Homo sapiens, UniProt P35475).
T2 sequence (P35475 28-653): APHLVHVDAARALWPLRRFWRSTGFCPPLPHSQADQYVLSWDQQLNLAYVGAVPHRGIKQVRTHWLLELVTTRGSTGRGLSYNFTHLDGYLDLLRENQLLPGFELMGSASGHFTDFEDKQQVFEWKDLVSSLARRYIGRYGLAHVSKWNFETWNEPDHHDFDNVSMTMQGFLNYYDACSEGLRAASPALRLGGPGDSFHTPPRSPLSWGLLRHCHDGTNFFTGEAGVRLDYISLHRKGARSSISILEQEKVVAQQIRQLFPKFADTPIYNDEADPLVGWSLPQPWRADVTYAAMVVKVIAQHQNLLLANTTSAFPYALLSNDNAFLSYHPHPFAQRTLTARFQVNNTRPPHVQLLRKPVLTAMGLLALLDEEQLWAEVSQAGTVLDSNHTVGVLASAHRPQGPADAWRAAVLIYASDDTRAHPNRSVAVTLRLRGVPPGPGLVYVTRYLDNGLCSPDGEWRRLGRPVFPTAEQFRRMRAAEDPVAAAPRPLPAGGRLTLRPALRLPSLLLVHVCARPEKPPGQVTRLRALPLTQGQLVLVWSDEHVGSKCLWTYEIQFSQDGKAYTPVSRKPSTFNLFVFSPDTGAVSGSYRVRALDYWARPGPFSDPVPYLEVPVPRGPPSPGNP
Nature of the assay: inhibition of alpha-L-iduronidase (Example 3). The assay is classed as biochemical.
Text: as §1

In assay [2] the target is T3, α-D-galactosidase (green coffee beans) (Coffea arabica, UniProt Q42656).
T3 construct: purchased Sigma Aldrich Chemicals Limited
In words: glycosidase assay with p-nitrophenyl substrates (Example 2). The assay is classed as biochemical. As to conditions: 10 μl of 5 mM iminosugar solution in 70 μl incubation mixture; 20° C.; read-out: Promotion of glycosidase activity: α-D-galactosidase (Green coffee bean). As for the experimental part:
(§2) The assays were conducted as described by Watson et al. 1997, Phytochemistry 46: 255-259 using p-nitrophenyl-substrates. Assays were carried out in microtitre plates. Enzymes were assayed in 0.1M citric acid/0.2M di-sodium hydrogen phosphate (Mcllvaine) buffers at the optimum pH for the enzyme. All assays were carried out at 20° C. All enzymes and substrates were purchased from Sigma Aldrich Chemicals Limited. The incubation mixture consisted of 10 μl of enzyme solution, 10 μl of the iminosugars solution (made up in deionised water at 5 mM) and 50 μl of the appropriate 5 mM p-nitrophenyl substrate made up in McIlvaine buffer at the optimum pH for the enzyme. The reactions were stopped with 0.4M glycine (pH 10.4) during the exponential phase of the reaction, which was determined at the beginning of the assay using blanks with water, which were incubated for a range of time periods to measure the reaction rate using 5 mM substrate solution. Absorbances were read at 405 nm. Water was substituted for the inhibitors in the blanks.
(§3) The glycosidases used were α-D-glucosidase (yeast), α-D-glucosidase (Bacillus sterothermophilus), α-D-glucosidase (rice), amyloglucosidase (Aspergillus niger), β-D-glucosidase (almond), α-D-galactosidase (green coffee beans), β-D-galactosidase (bovine liver), α-L-fucosidase (bovine kidney), α-D-mannosidase (Jack bean), β-D-mannosidase (Cellullomonas fimi), Naringinase (Penicillium decumbens), N-acetyl-β-D-glucosaminidase (Bovine kidney), N-acetyl-β-D-glucosaminidase (Aspergillus oryzae) and N-acetyl-β-D-glucosaminidase (Jack bean)

Assay [3] has as its target T4, α-L-fucosidase (bovine kidney) (Bos taurus, UniProt Q2KIM0).
T4 construct: purchased Sigma Aldrich Chemicals Limited; host or cells: bovine kidney
T4 sequence (Q2KIM0 23-468): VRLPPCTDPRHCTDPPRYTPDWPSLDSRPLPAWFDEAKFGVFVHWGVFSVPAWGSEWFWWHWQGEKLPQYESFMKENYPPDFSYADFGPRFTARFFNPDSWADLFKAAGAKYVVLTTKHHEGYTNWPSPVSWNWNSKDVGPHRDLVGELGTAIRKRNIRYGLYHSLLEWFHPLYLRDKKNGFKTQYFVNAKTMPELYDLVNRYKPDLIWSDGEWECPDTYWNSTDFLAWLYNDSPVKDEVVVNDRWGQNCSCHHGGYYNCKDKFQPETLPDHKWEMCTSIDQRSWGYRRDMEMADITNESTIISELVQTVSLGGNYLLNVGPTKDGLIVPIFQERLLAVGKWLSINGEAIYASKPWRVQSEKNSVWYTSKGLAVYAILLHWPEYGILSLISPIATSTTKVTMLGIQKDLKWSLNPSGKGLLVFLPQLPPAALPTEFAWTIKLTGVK
The description is as above. The assay is classed as biochemical. As to conditions: 10 μl of 5 mM iminosugar solution in 70 μl incubation mixture; 20° C. The procedure:
as §2, §3

Assay [4] has as its system α-D-glucosidase (Bacillus sterothermophilus). The assay is described as above. The assay is classed as biochemical. Conditions: 10 μl of 5 mM iminosugar solution in 70 μl incubation mixture; 20° C. The procedure: as §2, §3
In assay [5] the test system is beta-glucocerebrosidase (N370S GM01873, L444P GM08752). In words: enzyme enhancement assay, cell based screening for chaperones (Gaucher lymphoblasts). Set-up: species or system human. Conditions: Gaucher patient lymphoblasts, dosed 0.3-100 μM, 72 hr; relative to vehicle, normalised against total protein.
In assay [6] the target is T5, wild type (wt) beta-glucocerebrosidase (Homo sapiens, UniProt P04062).
T5 construct: The lysates were used as a source for wild type (wt) beta-glucocerebrosidase; endogenous in cells; host or cells: HL60 (ECACC No. 98070106) lysate
T5 sequence (P04062 40-536): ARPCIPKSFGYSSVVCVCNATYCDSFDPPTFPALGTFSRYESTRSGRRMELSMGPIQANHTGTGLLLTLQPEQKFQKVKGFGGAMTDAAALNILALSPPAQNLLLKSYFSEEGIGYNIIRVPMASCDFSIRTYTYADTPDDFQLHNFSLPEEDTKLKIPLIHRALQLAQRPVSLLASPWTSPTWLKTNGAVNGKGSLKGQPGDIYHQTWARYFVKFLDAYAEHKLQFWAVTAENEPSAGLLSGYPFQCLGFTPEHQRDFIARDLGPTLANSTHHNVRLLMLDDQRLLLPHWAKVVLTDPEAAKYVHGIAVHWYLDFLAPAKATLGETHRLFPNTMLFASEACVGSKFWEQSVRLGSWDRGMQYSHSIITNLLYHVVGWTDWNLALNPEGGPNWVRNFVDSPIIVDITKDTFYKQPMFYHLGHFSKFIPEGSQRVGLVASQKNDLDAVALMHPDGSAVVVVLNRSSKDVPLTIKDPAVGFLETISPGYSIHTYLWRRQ
Nature of the assay: beta-glucocerebrosidase activity assay in HL60 lysate (4MU-β-D-glc).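 Note: fluorometric read-out of 4MU liberated from the substrate (ex 360 nm, em 450 nm) after 37 °C incubation, reaction stopped with sodium carbonate.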 The assay is classed as biochemical. Conditions: at a concentration of 100 μM, 0.5 mM 4MU-β-D-glc.

For the next assay, the system named is alpha-galactosidase. Nature of the assay: enzyme enhancement assay, cell based screening for chaperones (Fabry lymphoblasts GM04391). As to conditions: Fabry patient lymphoblasts (GM04391), dosed 0.3-100 μM, 72 hr; relative to vehicle. Set-up: species or system human.
Assay [7] addresses T6, Jack bean α-D-mannosidase (Canavalia ensiformis, UniProt C0HJB3).
T6 construct: purchased Sigma M7257
T6 sequence (C0HJB3 1-981): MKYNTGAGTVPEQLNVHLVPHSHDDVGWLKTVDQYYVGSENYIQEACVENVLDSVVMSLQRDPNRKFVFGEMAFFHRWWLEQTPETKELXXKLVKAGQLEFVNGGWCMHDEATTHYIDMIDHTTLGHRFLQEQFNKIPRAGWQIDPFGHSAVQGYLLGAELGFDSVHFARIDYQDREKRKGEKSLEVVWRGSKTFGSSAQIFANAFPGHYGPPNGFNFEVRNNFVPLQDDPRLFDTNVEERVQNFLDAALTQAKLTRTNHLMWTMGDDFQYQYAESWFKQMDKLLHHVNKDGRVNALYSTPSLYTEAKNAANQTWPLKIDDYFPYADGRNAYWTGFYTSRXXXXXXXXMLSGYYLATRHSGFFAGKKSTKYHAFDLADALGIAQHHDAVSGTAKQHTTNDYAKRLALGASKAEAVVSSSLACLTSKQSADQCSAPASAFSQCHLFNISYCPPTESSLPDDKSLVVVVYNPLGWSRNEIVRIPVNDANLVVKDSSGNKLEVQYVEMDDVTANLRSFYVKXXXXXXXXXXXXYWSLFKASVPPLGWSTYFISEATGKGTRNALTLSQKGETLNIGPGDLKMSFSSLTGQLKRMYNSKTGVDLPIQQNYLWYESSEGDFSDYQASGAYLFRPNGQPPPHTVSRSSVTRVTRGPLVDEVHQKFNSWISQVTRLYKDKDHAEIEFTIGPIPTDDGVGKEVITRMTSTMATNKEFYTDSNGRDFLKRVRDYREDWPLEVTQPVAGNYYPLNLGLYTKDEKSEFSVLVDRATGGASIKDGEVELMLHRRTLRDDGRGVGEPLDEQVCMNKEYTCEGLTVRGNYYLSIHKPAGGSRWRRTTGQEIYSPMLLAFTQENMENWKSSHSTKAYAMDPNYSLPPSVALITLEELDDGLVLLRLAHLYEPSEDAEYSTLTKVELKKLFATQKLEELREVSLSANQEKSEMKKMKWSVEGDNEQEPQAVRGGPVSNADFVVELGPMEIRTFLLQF
Nature of the assay: α-mannosidase activity assay with p-nitrophenyl-α-D-mannopyranoside (Example 1). Type of assay: biochemical. As to conditions: Jack Bean α-mannosidase, p-nitrophenyl-α-D-mannopyranoside as the substrate. The procedure:
Solutions of 0.2M Mcllvane buffer at pH 4.5 and 5 mM p-nitrophenyl-α-D-mannopyranoside (Sigma, N2127), dissolved in the buffer, were prepared. A solution of Jack bean α-D-mannosidase enzyme (Sigma, M7257, 22 Units/mg, 6.2 mg/ml.) was also prepared at 0.6 Units/ml in the buffer.
The incubation mixture consisted of 10 μl enzyme solution, 10 μl of 1 mg/ml aqueous iminosugar solution and 50 μl of 5 mM substrate made up in buffer at the optimum pH for the enzyme. The reactions were stopped by addition of 70 μl 0.4M glycine (pH 10.4) during the exponential phase of the reaction, which had been determined at the beginning using uninhibited assays in which water replaced inhibitor. Final absorbances were read at 405 nm using a Versamax microplate reader (Molecular Devices). Assays were carried out in triplicate, and the values given are means of the three replicates. Results were expressed as a percentage of uninhibited assays in which water replaced inhibitor.

T3 sequence (Q42656 16-378): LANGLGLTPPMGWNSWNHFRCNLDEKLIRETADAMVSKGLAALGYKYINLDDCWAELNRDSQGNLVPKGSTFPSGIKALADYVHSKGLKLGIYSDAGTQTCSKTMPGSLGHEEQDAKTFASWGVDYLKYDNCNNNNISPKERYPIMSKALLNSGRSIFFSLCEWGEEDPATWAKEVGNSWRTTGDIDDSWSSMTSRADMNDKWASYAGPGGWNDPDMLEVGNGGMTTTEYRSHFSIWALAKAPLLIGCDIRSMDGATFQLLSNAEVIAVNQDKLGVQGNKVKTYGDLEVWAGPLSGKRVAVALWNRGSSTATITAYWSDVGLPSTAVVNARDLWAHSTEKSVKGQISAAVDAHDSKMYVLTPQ

Take `O=C(O)[C@H]1NC[C@H](O)[C@@H](O)[C@@H]1O` [Compound 7, (2S,3R,4R,5S)-3,4,5-trihydroxypiperidine-2-carboxylic acid]: the “inhibition of beta-glucuronidase (in words)” value on beta-glucuronidase is recorded as “specific inhibitor”.
With `O=C(O)[C@@H]1[C@@H](O)[C@H](O)[C@H]2[C@@H](O)CCN21` [Compound 56, (1R,2R,3S,7S,7aR)-1,2,7-trihydroxyhexahydro-1H-pyrrolizine-3-carboxylic acid], the “inhibition of the other 14 glycosidases described in Example 2 (in words)” value in assay [1] is “none”. Also, at alpha-L-iduronidase, the “inhibition of alpha-L-iduronidase (in words)” value is recorded as “potently inhibited”.
As to `CCCCCCCCCN1C[C@H](O)[C@H](O)[C@@H]1[C@H](O)[C@H](O)CO` [Compound 324, (1S,2R)-1-((2R,3R,4S)-3,4-dihydroxy-1-nonylpyrrolidin-2-yl)propane-1,2,3-triol], in [2], the activation at 714 µM stood at 42%. Also, the “Promotion of glycosidase activity: α-L-fucosidase (Bovine kidney)” value in [3] was 42 % increase in absorbance compared to the water controls. For the same molecule, the “Promotion of glycosidase activity: α-D-glucosidase (Bacillus sterothermophilus)” value in [4] was 150 % increase in absorbance compared to the water controls.
On to `O[C@@H]1C[C@H]2CC[C@](O)(N2)[C@H]1O` [Compound 20, (1R,2S,3R,5R)-8-azabicyclo[3.2.1]octane-1,2,3-triol], for which, in [5], the “increased enzyme activity (beta-glucocerebrosidase)” value was > 20%. In addition, in assay [6], the inhibition at 100 µM was > 50%. Moreover, the “increased enzyme activity (alpha-galactosidase)” value in the assay on alpha-galactosidase was > 20%.
`C[C@@]1(O)CN[C@H](CO)[C@@H](O)[C@@H]1O` [Compound 201, (2R,3R,4S,5R)-2-(hydroxymethyl)-5-methylpiperidine-3,4,5-triol]: the “increased enzyme activity (beta-glucocerebrosidase)” value in [5] is > 201%. Moreover, in [7], the “promotion of the mannosidase activity (in words)” value is reported as “promotion of the mannosidase activity”. The “increased enzyme activity (alpha-galactosidase)” value with alpha-galactosidase was > 201%.
